Assay results published in patent US20230146455A1, “TREATMENT OF INFLAMMATORY DISEASES WITH PEPTIDES AND PHARMACEUTICAL COMPOSITIONS” (Yuyu Pharma, Inc., priority 2020, published 2023).
“And” between values parts separate entries of the source, which are not always exact repeats. Equal entries are not always repeated. Where a SMILES comes first, the peptide text is derived from it. [ ]: non-standard residue; d: D form. Hyp = O=C(O)[C@@H]1C[C@@H](O)CN1

System: MMP-9
Assay: Example 9 Luminex, LPS hPBMCs: MMP-9
Format: cell-based, human
Experimental: Treatment Human PBMCs were pretreated with YY-101, YDE-011 and YDE-043 or reference compound; Xiidra® at various concentration (ranging from 1 nM to 100 uM) for 2 h before stimulation. An equal volume of 0.5% DMSO was used as a vehicle control. Then, the cells were treated with LPS at 5 ug/ml. The supernatants from treated cells were harvested at 24 h and placed in a 96 well for Luminex cytokine & chemokine profiling using a Luminex 200 multiplex assay (Luminex; R&D system, USA).
The main study arm with triplicate wells per group in a 24-well plate: • 1. Blank • 2. PBMC: 0.5% DMSO • 3. PBMC+LPS (5 ug/ml) • 4. PBMC+YY-101 100 uM • 5. PBMC+YY-101 10 uM • 6. PBMC+YY-101 1 uM • 7. PBMC+YY-101 0.1 uM • 8. PBMC+YY-101 0.01 uM • 9. PBMC+LPS (5 ug/ml)+Xiidra®100 uM • 10. PBMC+LPS (5 ug/ml)+Xiidra® 10 uM • 11. PBMC+LPS (5 ug/ml)+Xiidra® 1 uM • 12. PBMC+LPS (5 ug/ml)+Xiidra®0.1 uM • 13. PBMC+LPS (5 ug/ml)+Xiidra®0.01 uM • 14. PBMC+LPS (5 ug/ml)+Xiidra®0.001 uM • 15. PBMC+LPS (5 ug/ml)+YY-101 100 uM • 16. PBMC+LPS (5 ug/ml)+YY-101 10 uM • 17. PBMC+LPS (5 ug/ml)+YY-101 1 uM • 18. PBMC+LPS (5 ug/ml)+YY-101 0.1 uM • 19. PBMC+LPS (5 ug/ml)+YY-101 0.01 uM • 20. PBMC+LPS (5 ug/ml)+YY-101 0.001 uM • 21. PBMC+LPS (5 ug/ml)+YDE-011 100 uM • 22. PBMC+LPS (5 ug/ml)+YDE-011 10 uM • 23. PBMC+LPS (5 ug/ml)+YDE-011 1 uM • 24. PBMC+LPS (5 ug/ml)+YDE-011 0.1 uM • 25. PBMC+LPS (5 ug/ml)+YDE-011 0.01 uM • 26. PBMC+LPS (5 ug/ml)+YDE-011 0.001 uM • 27. PBMC+LPS (5 ug/ml)+YDE-043 100 uM • 28. PBMC+LPS (5 ug/ml)+YDE-043 10 uM • 29. PBMC+LPS (5 ug/ml)+YDE-043 1 uM • 30. PBMC+LPS (5 ug/ml)+YDE-043 0.1 uM • 31. PBMC+LPS (5 ug/ml)+YDE-043 0.01 uM • 32. PBMC+LPS (5 ug/ml)+YDE-043 0.001 uM
Multiplex assay was used to measure 30 cytokines and chemokines. The 1:2, 1:10 and 1:200 diluted cell supernatant and serial dilution of the standard were dispensed into a 96 well plate at 50 ul/well. Then, the pre-mixed cocktail of antibody-coated magnetic beads was dispensed at 50 ul/well and incubated at room temperature for 2 h in a horizontal orbital microplate shaker at 800±500 rpm. The beads were washed using a magnetic device to prevent loss. The biotin-antibody was dispensed in 50 ul of each well and incubated at room temperature for 1 h in a shaker at 800±500 rpm. After washing, streptavidin-PE was added at 50 ul/well and incubated at room temperature for 30 min in a shaker under the same conditions. Finally, after washing, wash buffer (100 ul/well) was added to the plate and incubated in a shaker for 2 min. The Luminex™ 200 setting were set according to the manufacturer's protocol. The data was calculated with a standard five-parameter logistic nonlinear regression analysis of the data (xPonent software 4.2, USA). The levels of cytokine/chemokine are normalized to the live cell counts (1×10^5 cells/mL) and presented as concentrations per mL (pg/mL or ng/mL).

[1] = PBMC + 0.01 uM, no LPS, single replicates
[2] = PBMC + 0.1 uM, no LPS, single replicates
[3] = PBMC + 1 uM, no LPS, single replicates
[4] = PBMC + 10 uM, no LPS, single replicates
[5] = PBMC + 100 uM, no LPS, single replicates
[6] = PBMC + LPS(5 ug/ml) + 0.001 uM, Mean
[7] = PBMC + LPS(5 ug/ml) + 0.001 uM, single replicates
[8] = PBMC + LPS(5 ug/ml) + 0.01 uM, Mean
[9] = PBMC + LPS(5 ug/ml) + 0.01 uM, single replicates
[10] = PBMC + LPS(5 ug/ml) + 0.1 uM, Mean
[11] = PBMC + LPS(5 ug/ml) + 0.1 uM, single replicates
[12] = PBMC + LPS(5 ug/ml) + 1 uM, Mean
[13] = PBMC + LPS(5 ug/ml) + 1 uM, single replicates
[14] = PBMC + LPS(5 ug/ml) + 10 uM, Mean
[15] = PBMC + LPS(5 ug/ml) + 10 uM, single replicates
[16] = PBMC + LPS(5 ug/ml) + 100 uM, Mean
[17] = PBMC + LPS(5 ug/ml) + 100 uM, single replicates

`CC(C)C[C@H](NC(=O)CNC(=O)[C@H](CC(=O)O)NC(=O)[C@H](CCC(N)=O)NC(=O)CNC(=O)[C@@H]1C[C@@H](O)CN1)C(=O)N[C@@H](C)C(=O)NCC(=O)N1CCC[C@H]1C(=O)N[C@@H](CCCCN)C(=O)O` [YY-101] (H-[Hyp]GQDGLAGPK-OH; N-terminus and C-terminus assumed) was tested. Which “MMP-9 Concentration” value (PBMC + 0.01 uM, no LPS, Mean) did it give?
The value was 6947.7 pg/mL.

What about the MMP-9 conc/live cell (PBMC + 0.01 uM, no LPS, Mean) of the same molecule?
The MMP-9 conc/live cell was 1395.6 pg/10^5.

And the “MMP-9 Concentration” value [1]?
The value was 6464.0 pg/mL and 7431.3 pg/mL.

And the MMP-9 conc/live cell [1]?
Its MMP-9 conc/live cell is 1243.1 pg/10^5 and 1548.2 pg/10^5.

What about the “MMP-9 Concentration” value (PBMC + 0.1 uM, no LPS, Mean) of the same molecule?
Its value is 7041.0 pg/mL.

And the MMP-9 conc/live cell (PBMC + 0.1 uM, no LPS, Mean)?
The MMP-9 conc/live cell was 1365.4 pg/10^5.

And the “MMP-9 Concentration” value [2]?
Its value is 5521.9 pg/mL and 8560.2 pg/mL.

And the MMP-9 conc/live cell [2]?
Its MMP-9 conc/live cell is 1255.0 pg/10^5 and 1475.9 pg/10^5.

And the “MMP-9 Concentration” value (PBMC + 1 uM, no LPS, Mean)?
The value was 7016.7 pg/mL.

And the MMP-9 conc/live cell (PBMC + 1 uM, no LPS, Mean)?
The MMP-9 conc/live cell was 1275.8 pg/10^5.

And the “MMP-9 Concentration” value [3]?
Its value is 6666.8 pg/mL and 7366.6 pg/mL.

What about the MMP-9 conc/live cell [3] of the same molecule?
Its MMP-9 conc/live cell is 1212.2 pg/10^5 and 1339.4 pg/10^5.

What about the “MMP-9 Concentration” value (PBMC + 10 uM, no LPS, Mean) of the same molecule?
Its value is 10460.4 pg/mL.

What about the MMP-9 conc/live cell (PBMC + 10 uM, no LPS, Mean) of the same molecule?
The MMP-9 conc/live cell was 1662.8 pg/10^5.

What about the “MMP-9 Concentration” value [4] of the same molecule?
Its value is 13551.9 pg/mL and 7369.0 pg/mL.

What about the MMP-9 conc/live cell [4] of the same molecule?
The MMP-9 conc/live cell was 2117.5 pg/10^5 and 1208.0 pg/10^5.

What about the “MMP-9 Concentration” value (PBMC + 100 uM, no LPS, Mean) of the same molecule?
Its value is 5317.6 pg/mL.

And the MMP-9 conc/live cell (PBMC + 100 uM, no LPS, Mean)?
Its MMP-9 conc/live cell is 799.8 pg/10^5.

And the “MMP-9 Concentration” value [5]?
The value was 6000.1 pg/mL and 4635.0 pg/mL.

And the MMP-9 conc/live cell [5]?
Its MMP-9 conc/live cell is 937.5 pg/10^5 and 662.1 pg/10^5.

And the “MMP-9 Concentration” value [6]?
The value was 182.3 pg/mL.

And the MMP-9 conc/live cell [6]?
The MMP-9 conc/live cell was 28.3 pg/10^5.

And the “MMP-9 Concentration” value [7]?
Its value is 152.0 pg/mL and 155.2 pg/mL and 239.8 pg/mL.

And the MMP-9 conc/live cell [7]?
Its MMP-9 conc/live cell is 26.7 pg/10^5 and 21.9 pg/10^5 and 36.3 pg/10^5.

And the “MMP-9 Concentration” value [8]?
Its value is 150.9 pg/mL.

What about the MMP-9 conc/live cell [8] of the same molecule?
Its MMP-9 conc/live cell is 24.5 pg/10^5.

What about the “MMP-9 Concentration” value [9] of the same molecule?
The value was 161.5 pg/mL and 155.2 pg/mL and 135.8 pg/mL.

What about the MMP-9 conc/live cell [9] of the same molecule?
The MMP-9 conc/live cell was 25.2 pg/10^5 and 25.9 pg/10^5 and 22.3 pg/10^5.

And the “MMP-9 Concentration” value [10]?
The value was 114.6 pg/mL.

And the MMP-9 conc/live cell [10]?
The MMP-9 conc/live cell was 19.7 pg/10^5.

What about the “MMP-9 Concentration” value [11] of the same molecule?
The value was 102.0 pg/mL and 119.2 pg/mL and 122.6 pg/mL.

What about the MMP-9 conc/live cell [11] of the same molecule?
Its MMP-9 conc/live cell is 16.5 pg/10^5 and 22.9 pg/10^5 and 19.8 pg/10^5.

And the “MMP-9 Concentration” value [12]?
The value was 167.7 pg/mL.

What about the MMP-9 conc/live cell [12] of the same molecule?
Its MMP-9 conc/live cell is 25.8 pg/10^5.

And the “MMP-9 Concentration” value [13]?
Its value is 155.2 pg/mL and 161.5 pg/mL and 186.3 pg/mL.

What about the MMP-9 conc/live cell [13] of the same molecule?
Its MMP-9 conc/live cell is 24.6 pg/10^5 and 22.8 pg/10^5 and 30.1 pg/10^5.

What about the “MMP-9 Concentration” value [14] of the same molecule?
Its value is 157.2 pg/mL.

And the MMP-9 conc/live cell [14]?
Its MMP-9 conc/live cell is 24.0 pg/10^5.

And the “MMP-9 Concentration” value [15]?
Its value is 161.5 pg/mL and 167.8 pg/mL and 142.4 pg/mL.

What about the MMP-9 conc/live cell [15] of the same molecule?
Its MMP-9 conc/live cell is 26.9 pg/10^5 and 26.2 pg/10^5 and 18.7 pg/10^5.

What about the “MMP-9 Concentration” value [16] of the same molecule?
Its value is 96.1 pg/mL.

And the MMP-9 conc/live cell [16]?
Its MMP-9 conc/live cell is 16.5 pg/10^5.

What about the “MMP-9 Concentration” value [17] of the same molecule?
Its value is 98.5 pg/mL and 102.0 pg/mL and 87.7 pg/mL.

What about the MMP-9 conc/live cell [17] of the same molecule?
Its MMP-9 conc/live cell is 15.6 pg/10^5 and 16.5 pg/10^5 and 17.5 pg/10^5.
